Literature values as cited in patent publication US20220105100A1, “SAFE BRINZOLAMIDE AND BRIMONIDINE COMPOSITIONS WITH ENHANCED BENZALKONIUM CHLORIDE CONTENT” (Somerset Therapeutics, LLC, priority 2020, published 2022).

Settings: laboratory, experimental, and clinical studies

benzalkonium chloride
ophthalmological side effects: causing tear film instability, loss of goblet cells, conjunctival squamous metaplasia and apoptosis, disruption of the conical epithelium barrier, and damage to deeper ocular tissues
